Assay results reported in patent US9670227B2, “Thienopyrimidine derivatives, a process for their preparation and pharmaceutical compositions containing them” (LES LABORATOIRES SERVIER, priority 2013, dated 2017).
Like-named read-outs stand apart in the source and are kept apart here.

How the values were obtained:
Mcl-1 protein = Mcl-1 protein (UniProtKB primary accession number: Q07820) (Homo sapiens, UniProt Q07820); assay: Inhibition of Mcl-1 by fluorescence polarisation, Method 1; assay type: binding; settings: fluorescence polarisation; Method 1, or Method 2; read-out: IC50 (M) Mcl-1 FP
Outline: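 An 11-point DMSO dilution of compound is mixed with buffer (10 mM HEPES, 150 mM NaCl, 0.05% Tween 20, pH 7.4) carrying 1 nM fluorescein-labelled ligand and 5 nM Mcl-1, final concentrations. Displacement is monitored by fluorescence polarisation.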

[1] = test system: H929 multiple myeloma tumour line; assay: In vitro cytotoxicity, Microculture Tetrazolium Assay; assay type: cell-based; settings: H929 cells, 48 hours exposure, MTT, read-out: IC50 (μM) MTT H929
Experimental: The cytotoxicity studies were carried out on the H929 multiple myeloma tumour line.
The cells are distributed onto microplates and exposed to the test compounds for 48 hours.

Sequence of Mcl-1 protein (Q07820 whole entry): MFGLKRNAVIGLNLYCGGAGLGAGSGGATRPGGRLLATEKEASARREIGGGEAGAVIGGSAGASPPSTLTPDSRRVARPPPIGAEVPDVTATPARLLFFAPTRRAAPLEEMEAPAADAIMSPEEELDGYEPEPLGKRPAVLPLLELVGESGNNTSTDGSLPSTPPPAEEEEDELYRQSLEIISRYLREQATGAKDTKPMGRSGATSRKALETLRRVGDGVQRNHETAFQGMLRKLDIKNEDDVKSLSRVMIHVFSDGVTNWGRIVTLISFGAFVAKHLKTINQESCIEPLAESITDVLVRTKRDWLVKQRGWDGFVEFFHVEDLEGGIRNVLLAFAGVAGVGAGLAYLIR

Structure (SMILES) | IC50 (Mcl-1 protein) [M] | IC50 ([1]; Homo sapiens, NCI-H929, 48 h) [µM] | IC50 [1] [µM]
Cc1c(-c2c(-c3ccc(F)cc3)sc3ncnc(OC(Cc4ccccc4OCc4ccnc(-c5ccccc5OCc5ccccc5)n4)C(=O)O)c23)ccc(OCCN2CCN(C)CC2)c1Cl [Example 725, (2R)-3-[2-({2-[2-(benzyloxy)phenyl]pyrimidin-4-yl}methoxy)phenyl]-2-{[(5Sa)-5-{3-chloro-2-methyl-4-[2-(4-methylpiperazin-1-yl)ethoxy]phenyl}-6-(4-fluorophenyl)thieno[2,3-d]pyrimidin-4-yl]oxy}propanoic acid] | 1.46e-09 | 0.01 | 
Cc1c(-c2c(-c3ccc(F)cc3)sc3ncnc(OC(Cc4ccccc4OCc4ccnc(-c5ccccc5C(F)(F)F)n4)C(=O)O)c23)ccc(OCCN2CCN(C)CC2)c1Cl [Example 727, (2R)-2-{[(5Sa)-5-{3-chloro-2-methyl-4-[2-(4-methylpiperazin-1-yl)ethoxy]phenyl}-6-(4-fluorophenyl)thieno[2,3-d]pyrimidin-4-yl]oxy}-3-[2-({2-[2-(trifluoromethyl)phenyl]pyrimidin-4-yl}methoxy)phenyl]propanoic acid] | 1.32e-09 | 0.013 | 
COc1cnccc1-c1nccc(COc2ccccc2CC(Oc2ncnc3sc(-c4ccc(F)cc4)c(-c4ccc(OCCN5CCN(C)CC5)c(Cl)c4C)c23)C(=O)O)n1 [Example 730, (2R)-2-{[(5Sa)-5-{3-chloro-2-methyl-4-[2-(4-methylpiperazin-1-yl)ethoxy]phenyl}-6-(4-fluorophenyl)thieno[2,3-d]pyrimidin-4-yl]oxy}-3-(2-{[2-(3-methoxypyridin-4-yl)pyrimidin-4-yl]methoxy}phenyl)propanoic acid] | 9.48e-10 | 0.005 | 
Cc1cc(-c2nccc(COc3ccccc3C[C@@H](Oc3ncnc4sc(-c5ccc(F)cc5)c(-c5ccc(OCCN6CCN(C)CC6)c(Cl)c5C)c34)C(=O)O)n2)cnc1C [Example 732, (2R)-2-{[(5Sa)-5-{3-chloro-2-methyl-4-[2-(4-methylpiperazin-1-yl)ethoxy]phenyl}-6-(4-fluorophenyl)thieno[2,3-d]pyrimidin-4-yl]oxy}-3-(2-{[2-(5,6-dimethylpyridin-3-yl)pyrimidin-4-yl]methoxy}phenyl)propanoic acid] | 1.27e-09 |  | 0.013
COc1ccc(-c2nccc(COc3ccccc3CC(Oc3ncnc4sc(-c5ccc(F)cc5)c(-c5ccc(OCCN6CCN(C)CC6)c(Cl)c5C)c34)C(=O)O)n2)c(OC)c1 [Example 733, (2R)-2-{[(5Sa)-5-{3-chloro-2-methyl-4-[2-(4-methylpiperazin-1-yl)ethoxy]phenyl}-6-(4-fluorophenyl)thieno[2,3-d]pyrimidin-4-yl]oxy}-3-(2-{[2-(2,4-dimethoxyphenyl)pyrimidin-4-yl]methoxy}phenyl)propanoic acid] | 9.48e-10 | 0.005 | 
COc1cc(-c2nccc(COc3ccccc3CC(Oc3ncnc4sc(-c5ccc(F)cc5)c(-c5ccc(OCCN6CCN(C)CC6)c(Cl)c5C)c34)C(=O)O)n2)ccn1 [Example 735, (2R)-2-{[(5Sa)-5-{3-chloro-2-methyl-4-[2-(4-methylpiperazin-1-yl)ethoxy]phenyl}-6-(4-fluorophenyl)thieno[2,3-d]pyrimidin-4-yl]oxy}-3-(2-{[2-(2-methoxypyridin-4-yl)pyrimidin-4-yl]methoxy}phenyl)propanoic acid] | 9.48e-10 | 0.007 | 
COc1ccccc1-n1nccc1COc1ccccc1CC(Oc1ncnc2sc(-c3ccc(F)cc3)c(-c3ccc(OCCN4CCN(C)CC4)c(Cl)c3C)c12)C(=O)O [Example 738, (2R)-2-{[(5Sa)-5-{3-chloro-2-methyl-4-[2-(4-methylpiperazin-1-yl)ethoxy]phenyl}-6-(4-fluorophenyl)thieno[2,3-d]pyrimidin-4-yl]oxy}-3-(2-{[1-(2-methoxyphenyl)-1H-pyrazol-5-yl]methoxy}phenyl)propanoic acid] | 3.78e-09 | 0.103 | 
COc1ccccc1Cn1nccc1COc1ccccc1CC(Oc1ncnc2sc(-c3ccc(F)cc3)c(-c3ccc(OCCN4CCN(C)CC4)c(Cl)c3C)c12)C(=O)O [Example 739, (2R)-2-{[(5Sa)-5-{3-chloro-2-methyl-4-[2-(4-methylpiperazin-1-yl)ethoxy]phenyl}-6-(4-fluorophenyl)thieno[2,3-d]pyrimidin-4-yl]oxy}-3-(2-{[1-(2-methoxybenzyl)-1H-pyrazol-5-yl]methoxy}phenyl)propanoic acid] | 2.32e-09 | 0.093 | 
COc1ccccc1-c1nccc(COc2ccccc2CC(Oc2ncnc3sc(-c4ccc(F)cc4)c(-c4ccc(OCCN5CCNCC5)c(Cl)c4C)c23)C(=O)O)n1 [Example 744, (2R)-2-{[(5Sa)-5-{3-chloro-2-methyl-4-[2-(piperazin-1-yl)ethoxy]phenyl}-6-(4-fluorophenyl)thieno[2,3-d]pyrimidin-4-yl]oxy}-3-(2-{[2-(2-methoxyphenyl)pyrimidin-4-yl]methoxy}phenyl)propanoic acid] | 9.48e-10 | 0.042 | 
CCN1CCN(CCOc2ccc(-c3c(-c4ccc(F)cc4)sc4ncnc(OC(Cc5ccccc5OCc5ccnc(-c6ccccc6F)n5)C(=O)O)c34)c(C)c2Cl)CC1 [Example 745, (2R)-2-{[(5Sa)-5-{3-chloro-4-[2-(4-ethylpiperazin-1-yl)ethoxy]-2-methylphenyl}-6-(4-fluorophenyl)thieno[2,3-d]pyrimidin-4-yl]oxy}-3-(2-{[2-(2-fluorophenyl)pyrimidin-4-yl]methoxy}phenyl)propanoic acid] | 9.48e-10 | 0.003 | 

More lines, main results first:

IC50 (Mcl-1 protein) [M] | Structure (SMILES) | IC50 ([1]; Homo sapiens, NCI-H929, 48 h) [µM] | IC50 [1] [µM]
3.6e-09 | COc1nccc(COc2ccccc2CC(Oc2ncnc3sc(-c4ccc(F)c(F)c4)c(-c4ccc(OCCN5CCN(C)CC5)c(Cl)c4C)c23)C(=O)O)n1 [Example 706, (2R)-2-{[(5Sa)-5-{3-chloro-2-methyl-4-[2-(4-methylpiperazin-1-yl)ethoxy]phenyl}-6-(3,4-difluorophenyl)thieno[2,3-d]pyrimidin-4-yl]oxy}-3-{2-[(2-methoxypyrimidin-4-yl)methoxy]phenyl}propanoic acid] | 0.04 | 
1.4e-08 | Cc1c(-c2c(-c3ccc(F)c(F)c3)sc3ncnc(OC(Cc4ccccc4OCc4ccnc(C(F)(F)F)n4)C(=O)O)c23)ccc(OCCN2CCN(C)CC2)c1Cl [Example 707, (2R)-2-{[(5Sa)-5-{3-chloro-2-methyl-4-[2-(4-methylpiperazin-1-yl)ethoxy]phenyl}-6-(3,4-difluorophenyl)thieno[2,3-d]pyrimidin-4-yl]oxy}-3-(2-{[2-(trifluoromethyl)pyrimidin-4-yl]methoxy}phenyl)propanoic acid] | 0.042 | 
9.6e-09 | CCn1nccc1COc1ccccc1CC(Oc1ncnc2sc(-c3ccc(F)c(F)c3)c(-c3ccc(OCCN4CCN(C)CC4)c(Cl)c3C)c12)C(=O)O [Example 708, (2R)-2-{[(5Sa)-5-{3-chloro-2-methyl-4-[2-(4-methylpiperazin-1-yl)ethoxy]phenyl}-6-(3,4-difluorophenyl)thieno[2,3-d]pyrimidin-4-yl]oxy}-3-{2-[(1-ethyl-1H-pyrazol-5-yl)methoxy]phenyl}propanoic acid] | 0.055 | 
3.2e-08 | Cc1c(-c2c(-c3cccc(F)c3)sc3ncnc(OC(Cc4ccccc4OC(C)C)C(=O)O)c23)ccc(OCCN2CCN(C)CC2)c1Cl [Example 709, (2R)-2-{[(5Sa)-5-{3-chloro-2-methyl-4-[2-(4-methylpiperazin-1-yl)ethoxy]phenyl}-6-(3-fluorophenyl)thieno[2,3-d]pyrimidin-4-yl]oxy}-3-[2-(propan-2-yloxy)phenyl]propanoic acid] | 0.518 | 
2.4e-09 | COc1ccc(COc2ccccc2CC(Oc2ncnc3sc(-c4cccc(F)c4)c(-c4ccc(OCCN5CCN(C)CC5)c(Cl)c4C)c23)C(=O)O)cc1 [Example 710, (2R)-2-{[(5Sa)-5-{3-chloro-2-methyl-4-[2-(4-methylpiperazin-1-yl)ethoxy]phenyl}-6-(3-fluorophenyl)thieno[2,3-d]pyrimidin-4-yl]oxy}-3-{2-[(4-methoxybenzyl)oxy]phenyl}propanoic acid] | 0.384 | 
3.7e-09 | Cc1c(-c2c(-c3cccc(F)c3)sc3ncnc(O[C@H](Cc4ccccc4O)C(=O)O)c23)ccc(OCCN2CCN(C)CC2)c1Cl [Example 711, (2R)-2-{[(5Sa)-5-{3-chloro-2-methyl-4-[2-(4-methylpiperazin-1-yl)ethoxy]phenyl}-6-(3-fluorophenyl)thieno[2,3-d]pyrimidin-4-yl]oxy}-3-(2-hydroxyphenyl)propanoic acid] |  | 0.591
3.4e-08 | COc1ccc(Cl)cc1CC(Oc1ncnc2sc(-c3ccc(Cl)o3)c(-c3ccc(OCCN4CCN(C)CC4)c(Cl)c3C)c12)C(=O)O [Example 714, (2R)-2-{[6-(5-chlorofuran-2-yl)-(5Sa)-5-{3-chloro-2-methyl-4-[2-(4-methylpiperazin-1-yl)ethoxy]phenyl}thieno[2,3-d]pyrimidin-4-yl]oxy}-3-(5-chloro-2-methoxyphenyl)propanoic acid] | 0.188 | 
1.2e-08 | COc1cc(F)ccc1CC(Oc1ncnc2sc(-c3ccc(Cl)o3)c(-c3ccc(OCCN4CCN(C)CC4)c(Cl)c3C)c12)C(=O)O [Example 718, (2R)-2-{[6-(5-chlorofuran-2-yl)-(5Sa)-5-{3-chloro-2-methyl-4-[2-(4-methylpiperazin-1-yl)ethoxy]phenyl}thieno[2,3-d]pyrimidin-4-yl]oxy}-3-(4-fluoro-2-methoxyphenyl)propanoic acid] | 0.082 | 
